Two compounds from patent publication US6649654B1, “Methods for identifying and using IKK inhibitors” (The Regents of the University of California, priority 1999, dated 2003) can be followed below.

Entries after “also recorded” stand apart in the source; their conditions may differ. Like-named read-outs stand apart in the source and are kept apart here.

In test [1] the target is T1, Oct1 (Homo sapiens, UniProt P14859).
T1 construct: endogenous in cells; host or cells: Jurkat (PGA1); cells of the 15dPGJ2 experiment not clearly stated
T1 sequence (P14859 1-743): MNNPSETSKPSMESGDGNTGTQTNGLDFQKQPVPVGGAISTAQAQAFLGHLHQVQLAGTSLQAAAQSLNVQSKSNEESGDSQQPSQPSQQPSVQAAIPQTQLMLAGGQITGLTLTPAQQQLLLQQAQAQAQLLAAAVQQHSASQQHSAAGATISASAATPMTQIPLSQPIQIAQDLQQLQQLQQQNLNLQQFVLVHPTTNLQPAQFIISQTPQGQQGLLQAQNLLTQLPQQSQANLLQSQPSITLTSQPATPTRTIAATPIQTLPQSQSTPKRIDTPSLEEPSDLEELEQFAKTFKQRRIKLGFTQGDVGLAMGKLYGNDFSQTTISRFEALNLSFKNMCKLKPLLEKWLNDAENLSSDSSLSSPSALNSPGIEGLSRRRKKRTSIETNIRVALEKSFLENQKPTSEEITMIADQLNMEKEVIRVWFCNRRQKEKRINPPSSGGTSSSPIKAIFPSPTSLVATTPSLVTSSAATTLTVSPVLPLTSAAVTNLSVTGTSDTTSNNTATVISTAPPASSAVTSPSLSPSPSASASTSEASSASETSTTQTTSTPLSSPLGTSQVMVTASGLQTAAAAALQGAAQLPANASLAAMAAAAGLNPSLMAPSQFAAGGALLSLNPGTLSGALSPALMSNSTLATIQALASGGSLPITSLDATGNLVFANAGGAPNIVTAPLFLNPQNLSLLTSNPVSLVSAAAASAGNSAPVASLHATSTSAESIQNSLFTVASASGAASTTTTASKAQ
Description: Oct1 DNA binding activity. The format is cell-based.

Test [2] concerns the target T2, IKKβ(C179A) (Homo sapiens, UniProt O14920, C179A).
T2 sequence (O14920 1-756 C179A): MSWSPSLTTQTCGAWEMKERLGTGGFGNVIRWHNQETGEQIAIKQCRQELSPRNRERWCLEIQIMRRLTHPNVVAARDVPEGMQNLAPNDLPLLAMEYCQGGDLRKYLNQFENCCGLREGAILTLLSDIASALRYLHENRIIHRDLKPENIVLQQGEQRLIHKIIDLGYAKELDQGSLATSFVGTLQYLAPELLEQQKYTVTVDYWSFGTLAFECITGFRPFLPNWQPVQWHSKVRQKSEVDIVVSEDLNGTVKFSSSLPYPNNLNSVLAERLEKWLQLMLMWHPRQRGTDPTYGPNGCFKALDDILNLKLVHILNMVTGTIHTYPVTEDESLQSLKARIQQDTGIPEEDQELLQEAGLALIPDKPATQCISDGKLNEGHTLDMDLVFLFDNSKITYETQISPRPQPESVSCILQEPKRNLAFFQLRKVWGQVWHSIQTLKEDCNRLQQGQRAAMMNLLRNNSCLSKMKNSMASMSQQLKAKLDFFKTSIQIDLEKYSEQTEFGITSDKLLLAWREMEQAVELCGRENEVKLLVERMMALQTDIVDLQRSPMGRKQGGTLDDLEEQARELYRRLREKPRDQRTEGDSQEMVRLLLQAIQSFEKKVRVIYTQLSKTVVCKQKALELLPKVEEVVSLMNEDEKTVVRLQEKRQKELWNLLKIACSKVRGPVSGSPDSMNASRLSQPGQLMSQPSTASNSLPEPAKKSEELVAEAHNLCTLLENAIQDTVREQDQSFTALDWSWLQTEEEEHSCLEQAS
The test can be described thus: Recombinant IKKβ(C179A) (Sf9) kinase activity. It is filed as biochemical. Also noted: FLAG; made in house; host or cells: Sf9 (baculovirus). The following applies: FIG. 6D; PGA1 data not shown. As for the experimental part: In addition, recombinant IKKβ was expressed in Sf9 cells and purified as described (Zandi et al., supra). AA, PGs, LTB4, and T×B2 were added to washed imnmunoprecipitates of recombinant IKKβ in kinase buffer to a final volume of 500 μl. After 1.5 hours at 4° C., the immunoprecipitates were washed and the kinase activity determined. Western blot analysis was also performed as known in the art (See e.g., Rossi et al., supra).

Test [3] deals with NF-κB. Description: NF-κB activation / DNA-binding activity by EMSA in stimulated HeLa cells. The following applies: for effect on NF-κB activation: HeLa cells stimulated with TNFα (PGA1: IL-1 or TNFα); for IC50: Homo sapiens, HeLa cells. The format is cell-based, human. The procedure: Cells used in the experiments described herein were cultured in either RPMI 1640 (Jurkat cells) or DMEM (HeLa and COS cells), supplemented with 10% FBS and antibiotics. Cells were stimulated with either 25 ng/ml TPA, 20 ng/ml recombinant TNFα, or 10 ng/ml interleukin 1β (Sigma). PGA1, 15dPGJ2, T×B2, LTB4, AA and other PGs (Cayman) dissolved in ethanol were used as well, as known in the art (See e.g., Rossi et al., 94:746-750 [1997]). Controls received equal amounts of ethanol. Transfections were performed using Lipofectamine Plus (GIBCO) for HeLa and COS cells and DEAE-dextran (Sigma) for Jurkat cells. Xpress-tagged NIK, Xpress-tagged MEKK1, HA-tagged IKKα, and HA-tagged IKKβ were also used (See e.g., Zandi et al., Science 281:1360-1363 [1998]; and Delhase et al., Science 284:309-313 [1999]). COX2 and cPLA2 expression vectors were obtained from Dr. L. Feng (See also, Hirose et al., J. Am. Soc. Nephrol., 9:408-416 [1998]). PGD synthase was cloned from HT29 colon carcinoma cell line cDNA by PCR and subcloned into a pCDNA3 vector. Cells were lysed in buffer B (50 mM Tris-HCl, pH 7.5, 400 mM NaCl, 1 mM EDTA, 1 mM EGTA, 1% Triton, 0.5% NP-40, 10% glycerol, and supplemented with 20 mM β-glycerophosphate, 10 mM PNPP, […] 1 mM PMSF, 20 μg/ml aprotinin, 2.5 μg/ml leupeptin, 8.3 μg/ml bestatin, 1.7 μg/ml pepstatin, and 2 mM DTT).
Aliquots of total extracts (15 μg protein) in buffer B were incubated with a ^32P-labeled κB DNA, followed by analysis of DNA-binding activities by EMSA on 4% PAGE gels, as known in the art (See, Rossi et al., supra). Specificity of protein-DNA complexes was verified by supershift with polyclonal antibodies specific for p65 (Rel A).

As for `CCCCC/C=C/C=C1/C(=O)C=C[C@@H]1C/C=C\CCCC(=O)O` [15dPGJ2, 15-deoxy-Δ^12-14-PGJ2], the “effect on Oct1 DNA-binding activity” value in test [1] (15dPGJ2, data not shown) is “did not inhibit”. For the same compound, the “sensitivity of recombinant IKKβ(C179A)” value in test [2] is “resistant”. Further, the “effect on NF-κB activation” value in test [3] is reported as “inhibited”. In addition, the IC50 in test [3] (TNFα, read-out: IC50 for inhibition of NF-κB DNA binding activity) worked out at 2.25 µM; in test [3] (TNFα, read-out: IC50 for inhibition of NF-κB DNA-binding activity), 2.25 µM.
On to `CCCCC[C@H](O)/C=C/[C@H]1C=CC(=O)C1CCCCCCC(=O)O` (stereo partly shown) [PGA1, prostaglandin A1], for which the “effect on Oct1 DNA binding” value in test [1] (PGA1 (120 μM), FIG. 1A) was “did not inhibit; also recorded: No effects”. Besides, in test [2], the “sensitivity of recombinant IKKβ(C179A)” value was “resistant”. Also, in test [3], the “effect on NF-κB activation” value was “prevented”. Further, the IC50 in test [3] (read-out: IC50 towards NF-κB) and in test [3] (read-out: half-maximal inhibition towards NF-κB) was 65 µM throughout.
